Measurements taken from patent US20050112573A1, “Method of detecting toxic substance” (priority 2001, published 2005).

Tested on: yeast genes (level of expressed mRNA)
Test: DNA chip analysis of expressed mRNA of yeast genes after 2 h culture with a toxic chemical substance
Assay type: cell-based, Saccharomyces cerevisiae S288C
Details: for The level of expressed mRNA in the presence of chemical substance/ (ratio to absence of chemical substance): stress protein genes, DNA chip
Procedure: Yeast (Saccharomyces cerevtisiae S288C (α SUC2mal mel gap2 CUP1)) were cultured at 25° C. on YPD medium (yeast extract 1%, polypepton 2%, glucose 2%). One of toxic chemical substances was added to the cell at logarithmic growth phase, and the cell was further cultured for two hours. Cell was cultured without any chemical substance in the same condition, and was used as control. Concentrations of the chemical substances were defined to inhibit the growth of the yeast but not lead to death.
After the completion of cultivation, the culture was centrifuged to collect the cells. To the cells, sodium acetate buffer (50 mM sodium acetate, 10 mM EDTA, 1% SDS) was added, and the mixture was shaken at 65° C. for five minutes, followed by returning to room temperature, and obtaining the supernatant, which procedure was repeated two times. To the supernatant, ½ amount of a solution of phenol/chloroform was added, and the mixture was centrifuged to give a supernatant, which was added with an equal amount of chloroform, and the mixture was centrifuged to give a supernatant. To the supernatant, an equal amount of isopropanol containing 0.3 M sodium acetate was added, and the mixture was allowed to stand at room temperature for 30 minutes, after which the mixture was centrifuged to give a sediment of the whole RNAs. Seventy % ethanol was added to the sediment, and the mixture was again centrifuged to give a sediment, which was then dried and dissolved in water. mRNA was isolated from the whole RNAs as followings. In view of the fact that a poly A chain is attached to the 3′ terminus of mRNA, a polynucleotide having a poly T structure which was immobilized on the surface of latex beads was used to trap the mRNA, and then the mRNA was washed and eluted with spine column (Oligotex-dT30<Super>mRNA Purification Kit, Takara). Reverse transcription of the mRNA was conducted with a reverse transcriptase (Super Script II Reverse Transcriptase; catalogue No. 18064-014, GibcoBRL) using fluorescence-labeled nucleotides to give cDNAs that were introduced with Cy3-dUTP or Cy5-dUTP during the reverse transcription.
The labeled cDNAs were dissolved in TE buffer (10 mM Tris-HCl/1 mM EDTA, pH8.0), and the solution was dropped on the DNA chip containing the whole genes of yeast (DNA Chip Research Inc. Japan) so that the cDNAs were hybridized on the DNA chip at 65° C. for over 12 hours. The fluoresces intensity of the DNA chip was read with a scanner, and the ratio relative to the fluorescence intensity resulting from the absence of chemical substance was estimated as the following, which is shown in Tables 1 to 9: [formula]
In the Tables, “Intensity” indicated in the rightmost column is a value of the level of expressed mRNA of each gene in control cells as divided by the average level of the expressions of the whole genes.

S=C([S-])NCCNC(=S)[S-].[Zn+2] [(11), zinc N,N′-ethylenebis(dithiocarbamate)]
The level of expressed mRNA in the presence of chemical substance/The level of expressed mRNA in the absence of chemical substance (yeast gene YIL123W): 1.2
The level of expressed mRNA in the presence of chemical substance/The level of expressed mRNA in the absence of chemical substance (yeast gene YIL140W): 0.9
The level of expressed mRNA in the presence of chemical substance/ (in its absence), gene YJL070C (yeast gene YJL070C, ratio of DNA chip fluorescence intensity to that without chemical substance): 1.3
The level of expressed mRNA in the presence of chemical substance/The level of expressed mRNA in the absence of chemical substance (yeast gene YJL073W): 0.5
The level of expressed mRNA in the presence of chemical substance/The level of expressed mRNA in the absence of chemical substance (yeast gene YJL089W): 0.6
The level of expressed mRNA in the presence of chemical substance/ (ratio to absence), gene YJL096W (yeast gene YJL096W, mitochondria-located protein genes, 2 h culture with chemical): 1.2
The level of expressed mRNA in the presence of chemical substance/The level of expressed mRNA in the absence of chemical substance (yeast gene YJL116C): 2.9
The level of expressed mRNA in the presence of chemical substance/ (ratio to absence of chemical substance) (yeast gene YJL158C): 1.9
The level of expressed mRNA in the presence of chemical substance/ (in its absence), gene YJL167W (yeast gene YJL167W, ratio of DNA chip fluorescence intensity to that without chemical substance): 1.2
The level of expressed mRNA in the presence of chemical substance/ (ratio to absence), gene YJL180C (yeast gene YJL180C, mitochondria-located protein genes, 2 h culture with chemical): 1.4
The level of expressed mRNA in the presence of chemical substance/ (in its absence), gene YJL216C (yeast gene YJL216C, ratio of DNA chip fluorescence intensity to that without chemical substance): 1.1
The level of expressed mRNA in the presence of chemical substance/The level of expressed mRNA in the absence of chemical substance (yeast gene YJR004C): 0.7
The level of expressed mRNA in the presence of chemical substance/The level of expressed mRNA in the absence of chemical substance (yeast gene YJR086W): 1.0
The level of expressed mRNA in the presence of chemical substance/ (ratio to absence of chemical substance) (yeast gene YJR090C): 0.4
The level of expressed mRNA in the presence of chemical substance/The level of expressed mRNA in the absence of chemical substance (yeast gene YKL008C): 1.5
The level of expressed mRNA in the presence of chemical substance/The level of expressed mRNA in the absence of chemical substance (yeast gene YKL013C): 1.1
The level of expressed mRNA in the presence of chemical substance/The level of expressed mRNA in the absence of chemical substance (yeast gene YKL039W): 1.0
The level of expressed mRNA in the presence of chemical substance/The level of expressed mRNA in the absence of chemical substance (yeast gene YKL041W): 1.2
The level of expressed mRNA in the presence of chemical substance/The level of expressed mRNA in the absence of chemical substance (yeast gene YKL096W): 3.5
The level of expressed mRNA in the presence of chemical substance/The level of expressed mRNA in the absence of chemical substance (yeast gene YKL139W): 1.4
The level of expressed mRNA in the presence of chemical substance/ (ratio to absence of chemical substance) (yeast gene YKL164C): 1.0
The level of expressed mRNA in the presence of chemical substance/The level of expressed mRNA in the absence of chemical substance (yeast gene YKL165C): 0.3
The level of expressed mRNA in the presence of chemical substance/The level of expressed mRNA in the absence of chemical substance (yeast gene YKL193C): 1.7
The level of expressed mRNA in the presence of chemical substance/ (in its absence), gene YKR009C (yeast gene YKR009C, ratio of DNA chip fluorescence intensity to that without chemical substance): 1.2
The level of expressed mRNA in the presence of chemical substance/ (in its absence), gene YKR034W (yeast gene YKR034W, ratio of DNA chip fluorescence intensity to that without chemical substance): 0.0
The level of expressed mRNA in the presence of chemical substance/ (ratio to absence of chemical substance) (yeast gene YKR053C): 0.5
The level of expressed mRNA in the presence of chemical substance/ in its absence, gene YKR058W (yeast gene YKR058W, energy system protein genes, 2 h culture with the chemical, ratio to control without chemical): 1.5
The level of expressed mRNA in the presence of chemical substance/ (in its absence), gene YLR006C (yeast gene YLR006C, ratio of DNA chip fluorescence intensity to that without chemical substance): 1.5
The level of expressed mRNA in the presence of chemical substance/ (ratio to absence of chemical substance) (yeast gene YLR006C): 1.5
The level of expressed mRNA in the presence of chemical substance/The level of expressed mRNA in the absence of chemical substance (yeast gene YLR120C): 1.2
The level of expressed mRNA in the presence of chemical substance/The level of expressed mRNA in the absence of chemical substance (yeast gene YLR136C): 1.2
The level of expressed mRNA in the presence of chemical substance/The level of expressed mRNA in the absence of chemical substance (yeast gene YLR178C): 3.7
The level of expressed mRNA in the presence of chemical substance/The level of expressed mRNA in the absence of chemical substance (yeast gene YLR250W): 1.4
The level of expressed mRNA in the presence of chemical substance/ in its absence, gene YLR295C (yeast gene YLR295C, energy system protein genes, 2 h culture with the chemical, ratio to control without chemical): 1.3
The level of expressed mRNA in the presence of chemical substance/ (ratio to absence), gene YLR295C (yeast gene YLR295C, mitochondria-located protein genes, 2 h culture with chemical): 1.3
The level of expressed mRNA in the presence of chemical substance/The level of expressed mRNA in the absence of chemical substance (yeast gene YLR327C): 5.0
The level of expressed mRNA in the presence of chemical substance/ (in its absence), gene YLR351C (yeast gene YLR351C, ratio of DNA chip fluorescence intensity to that without chemical substance): 1.1
The level of expressed mRNA in the presence of chemical substance/The level of expressed mRNA in the absence of chemical substance (yeast gene YLR356W): 3.1
The level of expressed mRNA in the presence of chemical substance/The level of expressed mRNA in the absence of chemical substance (yeast gene YLR362W): 1.5
The level of expressed mRNA in the presence of chemical substance/ (in its absence), gene YLR375W (yeast gene YLR375W, ratio of DNA chip fluorescence intensity to that without chemical substance): 1.6
The level of expressed mRNA in the presence of chemical substance/The level of expressed mRNA in the absence of chemical substance (yeast gene YLR391W): 1.4
The level of expressed mRNA in the presence of chemical substance/The level of expressed mRNA in the absence of chemical substance (yeast gene YLR429W): 0.9
The level of expressed mRNA in the presence of chemical substance/ in its absence, gene YML129C (yeast gene YML129C, energy system protein genes, 2 h culture with the chemical, ratio to control without chemical): 1.2
The level of expressed mRNA in the presence of chemical substance/ (ratio to absence), gene YML129C (yeast gene YML129C, mitochondria-located protein genes, 2 h culture with chemical): 1.2
The level of expressed mRNA in the presence of chemical substance/The level of expressed mRNA in the absence of chemical substance (yeast gene YMR004W): 2.5
The level of expressed mRNA in the presence of chemical substance/ (ratio to absence), gene YMR023C (yeast gene YMR023C, mitochondria-located protein genes, 2 h culture with chemical): 0.8
The level of expressed mRNA in the presence of chemical substance/The level of expressed mRNA in the absence of chemical substance (yeast gene YMR094W): 1.0
The level of expressed mRNA in the presence of chemical substance/The level of expressed mRNA in the absence of chemical substance (yeast gene YMR104C): 1.1
The level of expressed mRNA in the presence of chemical substance/ (ratio to absence of chemical substance) (yeast gene YMR186W): 1.1
The level of expressed mRNA in the presence of chemical substance/The level of expressed mRNA in the absence of chemical substance (yeast gene YMR219W): 1.5
The level of expressed mRNA in the presence of chemical substance/The level of expressed mRNA in the absence of chemical substance (yeast gene YMR226C): 1.4
The level of expressed mRNA in the presence of chemical substance/ in its absence, gene YMR267W (yeast gene YMR267W, energy system protein genes, 2 h culture with the chemical, ratio to control without chemical): 1.0
The level of expressed mRNA in the presence of chemical substance/ (ratio to absence), gene YMR267W (yeast gene YMR267W, mitochondria-located protein genes, 2 h culture with chemical): 1.0
The level of expressed mRNA in the presence of chemical substance/ in its absence, gene YMR267W (yeast gene YMR267W, ratio of DNA chip fluorescence intensity to that without chemical substance): 1.0
The level of expressed mRNA in the presence of chemical substance/The level of expressed mRNA in the absence of chemical substance (yeast gene YMR275C): 1.1
The level of expressed mRNA in the presence of chemical substance/The level of expressed mRNA in the absence of chemical substance (yeast gene YMR276W): 1.9
The level of expressed mRNA in the presence of chemical substance/ (in its absence), gene YMR278W (yeast gene YMR278W, ratio of DNA chip fluorescence intensity to that without chemical substance): 1.1
